Measurements as given in US10537521B2 (priority 2016, dated 2020).
Like-named read-outs stand apart in the source and are kept apart here.

Experiments:
[1] = Example 1: multiple-dose randomized 3-way crossover PK study of two IV tramadol regimens vs 100 mg oral q6h; details: mean; for AUCtau n: last dosing interval
Description: A fitted curve was obtained because the second oral peak was not measured in the study. For the modeling portion of the analysis, a validated Phoenix® WinNonlin® program version 6.4 (Certara) was used for PK analysis, simulation, graphics, tables and statistical calculations. […] For purposes of nonlinear regression, the data were weighted as 1/observed. Predicted concentration-time data were calculated based on the individual fitted PK parameters.

[2] = after oral administration of tramadol (single dose of 100 mg); cited from earlier work
[3] = tested on: experienced opioid abusers; details: tramadol 100 and 200 mg IV, cited from earlier work
[4] = tested on: patients undergoing abdominal surgery; details: initial tramadol 100 mg or morphine 5 mg i.v., repeat tramadol 50 mg or morphine 5 mg on demand; cited from earlier work
[5] = tested on: postoperative pain; details: after 4 to 6 hours; IV or IM intermittent injection, dose titrated to pain response; cited from earlier work
[6] = Example 4: multiple dose steady-state dose proportionality study, tramadol injection 50/100 mg IV and Ultram tablet 50/100 mg oral q6h; assay type: in vivo, human; details: steady-state, healthy volunteers
[7] = tramadol single […] [100 mg] p.o., humans N=12 male; cited from earlier work
[8] = 50 mg IV regimen (h 0, 2, 4, then q4h to h 44), plasma
[9] = 75 mg IV regimen (h 0, 3, 6, then q6h to h 42)
[10] = 75 mg IV regimen (h 0, 3, 6, then q6h to h 42), plasma
[11] = 100 mg oral q6h to h 42, plasma
[12] = Tramadol dosed as 50 mg IV every 6 hours
[13] = Tramadol dosed as 50 mg Oral (Ultram tablet) every 6 hours
[14] = Tramadol dosed as 100 mg IV every 6 hours
[15] = Tramadol dosed as 100 gm Oral (Ultram tablet) every 6 hours

Question: With `CN(C)C[C@H]1CCCC[C@]1(O)c1cccc(O)c1` [O-desmethyltramadol] as the compound, how does the “Cmax(0-2)” value ([1]; 50 mg IV regimen (h 0, 2, 4, then q4h to h 44), first dose, plasma) read?
Answer: 17.1 ng/mL

Question: What about the “RAC(trough)” value ([1]; 50 mg IV regimen (h 0, 2, 4, then q4h to h 44)) of the same compound?
Answer: 5.2872

Question: And the AUC0-24 [1, 8]?
Answer: 1425 ng·h/mL

Question: And the AUC0-48 [1, 8]?
Answer: 3427 ng·h/mL

Question: What about the AUC24-48 [1, 8] of the same compound?
Answer: 2002 ng·h/mL

Question: And the C2 [1, 8]?
Answer: 16.9 ng/mL

Question: And the “C48 (T48)” value [1, 8]?
Answer: 81.7 ng/mL

Question: What about the C1 h [1, 8] of the same compound?
Answer: 11.8 ng/mL

Question: And the “Cmax(2-4)” value [1, 8]?
Answer: 37.8 ng/mL

Question: What about the Css [1, 8] of the same compound?
Answer: 88.9 ng/mL

Question: What about the Tmax [1, 8] of the same compound?
Answer: 44.95 h

Question: And the “Tmax(0-2)” value [1, 8]?
Answer: 1.85 h

Question: What about the “Tmax(2-4)” value [1, 8] of the same compound?
Answer: 3.95 h

Question: What about the “Tmax(44-48)” value [1, 8] of the same compound?
Answer: 45.31 h

Question: What about the “Cmax(0-3)” value ([1]; 75 mg IV regimen (h 0, 3, 6, then q6h to h 42), first dose, plasma) of the same compound?
Answer: 29.7 ng/mL

Question: And the AUCtau n [1, 9]?
Answer: 519.8 ng·h/mL

Question: What about the “RAC(trough)” value [1, 9] of the same compound?
Answer: 2.7237

Question: And the AUC0-24 [1, 10]?
Answer: 1608 ng·h/mL

Question: What about the AUC0-48 [1, 10] of the same compound?
Answer: 3504 ng·h/mL

Question: What about the AUC24-48 [1, 10] of the same compound?
Answer: 1896 ng·h/mL

Question: And the C3 [1, 10]?
Answer: 29.5 ng/mL

Question: What about the “C48 (T48)” value [1, 10] of the same compound?
Answer: 75.9 ng/mL

Question: And the C1 h [1, 10]?
Answer: 19.9 ng/mL

Question: And the “Cmax(3-6)” value [1, 10]?
Answer: 59.4 ng/mL

Question: What about the Css [1, 10] of the same compound?
Answer: 86.6 ng/mL

Question: What about the Tmax [1, 10] of the same compound?
Answer: 32.99 h

Question: And the “Tmax(0-3)” value [1, 10]?
Answer: 2.71 h

Question: What about the “Tmax(3-6)” value [1, 10] of the same compound?
Answer: 5.81 h

Question: And the “Tmax(42-48)” value [1, 10]?
Answer: 43.10 h

Question: What about the “Cmax(0-6)” value ([1]; 100 mg oral q6h to h 42, first dose, plasma) of the same compound?
Answer: 60.3 ng/mL

Question: What about the AUCtau n ([1]; 100 mg oral q6h to h 42) of the same compound?
Answer: 768.4 ng·h/mL

Question: And the “RAC(trough)” value ([1]; 100 mg oral q6h to h 42)?
Answer: 2.7839

Question: And the AUC0-24 [1, 11]?
Answer: 1655 ng·h/mL

Question: And the AUC0-48 [1, 11]?
Answer: 4349 ng·h/mL

Question: What about the AUC24-48 [1, 11] of the same compound?
Answer: 2693 ng·h/mL

Question: What about the C6 [1, 11] of the same compound?
Answer: 42.3 ng/mL

Question: What about the “C48 (T48)” value [1, 11] of the same compound?
Answer: 111 ng/mL

Question: And the C1 h [1, 11]?
Answer: 41.4 ng/mL

Question: What about the Cmax [1, 11] of the same compound?
Answer: 146 ng/mL

Question: What about the Css [1, 11] of the same compound?
Answer: 128 ng/mL

Question: What about the Tmax [1, 11] of the same compound?
Answer: 43.97 h

Question: What about the “Tmax(0-6)” value [1, 11] of the same compound?
Answer: 2.04 h

Question: What about the “Tmax(42-48)” value [1, 11] of the same compound?
Answer: 43.97 h

Question: What about the “Cmax(42-48)” value ([1]; 100 mg oral q6h to h 42, steady-state, plasma) of the same compound?
Answer: 146 ng/mL

Question: What about the half-life [2] of the same compound?
Answer: approximately 6.7 hours

Question: For `CN1CC[C@]23c4c5ccc(O)c4O[C@H]2[C@@H](O)C=C[C@H]3[C@H]1C5` [morphine], which “ratings of “liking”” value ([3]; morphine 10 and 20 mg IV, over 5 minutes, 10 experienced opioid abusers) is on record?
Answer: significantly increased ratings

Question: And the “ratings of “feel drug effect” compared to placebo” value ([3]; morphine 10 and 20 mg IV, over 5 minutes)?
Answer: significantly increased

Question: And the “ratings on the ARCI-MBG scale” value ([3]; morphine 20 mg IV)?
Answer: increased ratings

Question: What about the “responder rate (no or slight pain) within the first 90 minutes of treatment” value [4] of the same compound?
Answer: 81.2%

Question: And the “reduction of pain intensity” value [5]?
Answer: 69.8%

Question: Which “Cmin, tramadol M1 metabolite, Mean ± SD” value [6, 12] does the source give for `CN(C)C[C@H]1CCCC[C@]1(O)c1cccc(O)c1` [tramadol M1 metabolite] here?
Answer: 55.9 ± 7.4 ng/mL

Question: And the “Trough Peak, tramadol M1 metabolite, Mean ± SD” value (from here on “Trough Peak … Mean ± SD”) [6, 12]?
Answer: 0.715 ± 0.044 ratio

Question: What about the “Cmin, tramadol M1 metabolite, Mean ± SD” value [6, 13] of the same compound?
Answer: 65.9 ± 15.8 ng/mL

Question: What about the “Trough Peak … Mean ± SD” value [6, 13] of the same compound?
Answer: 0.670 ± 0.061 ratio

Question: And the “Cmin, tramadol M1 metabolite, Mean ± SD” value [6, 14]?
Answer: 130 ± 37 ng/mL

Question: What about the “Trough Peak … Mean ± SD” value [6, 14] of the same compound?
Answer: 0.795 ± 0.040 ratio

Question: And the “Cmin, tramadol M1 metabolite, Mean ± SD” value [6, 15]?
Answer: 93.6 ± 34.6 ng/mL

Question: And the “Trough Peak … Mean ± SD” value [6, 15]?
Answer: 0.707 ± 0.080 ratio

Question: With (+)-O-desmethyltramadol [(+)-M1] as the compound, how does the AUC [7] read?
Answer: 1258 ± 410 ng·h/mL

Question: And the Cmax [7]?
Answer: 147 ± 39 ng/mL

Question: What about the Tmax [7] of the same compound?
Answer: 1.6 ± 0.5 h

Question: And the t1/2 [7]?
Answer: 6.0 ± 1.0 h
